We go through 18 compounds from PubChem BioAssay AID330 (DTP/NCI, 2004).

The test system of the experiment is P388 leukemia ip, CD2F1 mice, survival T/C. Nature of the experiment: NCI In Vivo Anticancer Drug Screen. Data for tumor model P388 Leukemia (intraperitoneal) in CD2F1 (CDF1) mice. To be noted: endpoint: median survival time, higher = longer survival. The procedure, abridged: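 Mice carrying the transplanted tumor received test compound or vehicle. Survival was recorded in each group, and the value is the treated-group measurement divided by that of the vehicle-treated control group.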

The mark [1] stands for this setting: dose: 12.5 mg/kg/injection, schedule: Q01DX009 (ip), vehicle: Klucel (hydroxypropylcellulose) (HPC).
[2] abbreviates: dose: 25.0 mg/kg/injection, schedule: Q01DX009 (ip), vehicle: Klucel (hydroxypropylcellulose) (HPC).
Setting [3] is: dose: 50.0 mg/kg/injection, schedule: Q01DX009 (ip), vehicle: Klucel (hydroxypropylcellulose) (HPC).
Where [4] appears, read: dose: 50.0 mg/kg/injection, schedule: Q01DX005 (ip), vehicle: Klucel (hydroxypropylcellulose) (HPC).
[5] abbreviates: dose: 100.0 mg/kg/injection, schedule: Q01DX005 (ip), vehicle: Klucel (hydroxypropylcellulose) (HPC).
Setting [6] is: dose: 6.25 mg/kg/injection, schedule: Q01DX009 (ip), vehicle: saline with Tween-80.
[7] abbreviates: dose: 12.5 mg/kg/injection, schedule: Q01DX009 (ip), vehicle: saline with Tween-80.
Setting [8] is: dose: 25.0 mg/kg/injection, schedule: Q01DX009 (ip), vehicle: saline with Tween-80.
[9] abbreviates: dose: 12.5 mg/kg/injection, schedule: Q01DX005 (ip), vehicle: Klucel (hydroxypropylcellulose) (HPC).
Where [10] appears, read: dose: 25.0 mg/kg/injection, schedule: Q01DX005 (ip), vehicle: Klucel (hydroxypropylcellulose) (HPC).
Setting [11] is: dose: 60.0 mg/kg/injection, schedule: Q01DX005 (ip), vehicle: Klucel (hydroxypropylcellulose) (HPC).
The mark [12] stands for this setting: dose: 120.0 mg/kg/injection, schedule: Q01DX005 (ip), vehicle: Klucel (hydroxypropylcellulose) (HPC).
Setting [13] is: dose: 240.0 mg/kg/injection, schedule: Q01DX005 (ip), vehicle: Klucel (hydroxypropylcellulose) (HPC).
[14] abbreviates: dose: 100.0 mg/kg/injection, schedule: Q04DX003 (ip), vehicle: saline with Tween-80.
Setting [15] is: dose: 50.0 mg/kg/injection, schedule: Q04DX002 (ip), vehicle: saline with Tween-80.

Where “and” joins values, the source holds several entries; their conditions need not be identical. Equal entries are not always repeated. Inconclusive results and toxic doses are left out.

As to `CC1(C)C(=O)N(Br)C(=O)N1Br`, the T/C was 101 % of control under setting [1]; 99 % of control under setting [2]; 99 % of control under setting [3]; 90 % of control (dose: 100.0 mg/kg/injection, schedule: Q01DX009 (ip), vehicle: Klucel (hydroxypropylcellulose) (HPC)).

As for `OCC(O)C(O)C(O)c1nn(-c2ccccc2)c2nc3ccc(Cl)cc3nc12` (stereo unspecified), the T/C under setting [4] is 90 % of control; the T/C under setting [5] was 90 % of control; the T/C (dose: 200.0 mg/kg/injection, schedule: Q01DX005 (ip), vehicle: Klucel (hydroxypropylcellulose) (HPC)) was 89 % of control.

In the case of `Nc1ccc2cc3c(nc2n1)[nH]c1ccccc13`, the T/C runs as follows: (dose: 1.56 mg/kg/injection, schedule: Q01DX009 (ip), vehicle: saline with Tween-80) 97 % of control; (dose: 3.12 mg/kg/injection, schedule: Q01DX009 (ip), vehicle: saline with Tween-80) 103 % of control; under setting [6], 100 % of control; under setting [7], 102 % of control; under setting [8], 118 % of control.

Consider `CC(C)C1=C(O)C2=C(C(=O)C1=O)C1(C)CCCC(C)(C)C1C(O)C2OC=O` (stereo unspecified), for which the T/C under setting [9] is 93 % of control, the T/C under setting [10] was 109 % of control, the T/C under setting [4] is 107 % of control and the T/C under setting [5] was 111 % of control.

Regarding `COc1cccc(/C=C2/C(=O)N(c3ccc([N+](=O)[O-])cc3)N=C2C)c1`, the T/C is, setting by setting: (dose: 30.0 mg/kg/injection, schedule: Q01DX005 (ip), vehicle: Klucel (hydroxypropylcellulose) (HPC)) 97 % of control; under setting [11], 88 % of control; under setting [12], 98 % of control; under setting [13], 93 % of control.

For `C[As](C)SCCC(CCCCC(=O)O)S[As](C)C` (stereo unspecified), the T/C is, setting by setting: under setting [1], 109 % of control and 111 % of control; under setting [2], 122 % of control; (dose: 25.0 mg/kg/injection, schedule: Q04DX003 (ip), vehicle: saline with Tween-80) 106 % of control; under setting [3], 100 % of control; (dose: 50.0 mg/kg/injection, schedule: Q04DX003 (ip), vehicle: saline with Tween-80) 97 % of control; under setting [14], 108 % of control.

As for `O=C(Nc1ccc(Cl)cc1)Nc1nnc(COc2ccc(Cl)c(Cl)c2)o1`, the T/C by setting is: (dose: 15.0 mg/kg/injection, schedule: Q01DX005 (ip), vehicle: saline with Tween-80) 87 % of control and 90 % of control; (dose: 30.0 mg/kg/injection, schedule: Q01DX005 (ip), vehicle: saline with Tween-80) 90 % of control; (dose: 60.0 mg/kg/injection, schedule: Q01DX005 (ip), vehicle: saline with Tween-80) 89 % of control and 93 % of control; (dose: 120.0 mg/kg/injection, schedule: Q01DX005 (ip), vehicle: saline with Tween-80) 98 % of control; (dose: 240.0 mg/kg/injection, schedule: Q01DX005 (ip), vehicle: saline with Tween-80) 91 % of control.

As to `COCC/C=C/CCl`, the T/C was 100 % of control under setting [14]; 100 % of control (dose: 200.0 mg/kg/injection, schedule: Q04DX003 (ip), vehicle: saline with Tween-80); 95 % of control (dose: 400.0 mg/kg/injection, schedule: Q04DX003 (ip), vehicle: saline with Tween-80).

As for `N#CC(C#N)=NO` (tested in a mixture with another compound), the T/C was 100 % of control under setting [6]; 98 % of control under setting [7]; 100 % of control under setting [8]; 86 % of control (dose: 100.0 mg/kg/injection, schedule: Q01DX009 (ip), vehicle: saline).

With `COc1nc(N)nc(Cl)n1`, the T/C reads like this: under setting [7], 105 % of control; under setting [8], 107 % of control; (dose: 50.0 mg/kg/injection, schedule: Q01DX009 (ip), vehicle: saline with Tween-80) 101 % of control; (dose: 100.0 mg/kg/injection, schedule: Q01DX009 (ip), vehicle: saline with Tween-80) 98 % of control.

On to `O=C1c2ccccc2CCC1Cl` (stereo unspecified), for which the T/C (dose: 1.56 mg/kg/injection, schedule: Q01DX009 (ip), vehicle: DMSO) was 100 % of control; the T/C (dose: 3.12 mg/kg/injection, schedule: Q01DX009 (ip), vehicle: DMSO) was 103 % of control; the T/C (dose: 6.25 mg/kg/injection, schedule: Q01DX009 (ip), vehicle: DMSO) is 94 % of control and 97 % of control; the T/C (dose: 12.5 mg/kg/injection, schedule: Q01DX009 (ip), vehicle: DMSO) is 102 % of control; the T/C (dose: 25.0 mg/kg/injection, schedule: Q01DX009 (ip), vehicle: DMSO) was 94 % of control.

Consider `CC[C@@]1(O)C[C@H](OC2CC(N(C)C)C(OC3CC(O)C(OC4CCC(=O)C(C)O4)C(C)O3)C(C)O2)c2c(cc3c(c2O)C(=O)c2c(O)ccc(O)c2C3=O)[C@H]1C(=O)OC` (stereo partly specified), for which the T/C (dose: 1.56 mg/kg/injection, schedule: Q04DX003 (ip), vehicle: saline) was 116 % of control; the T/C (dose: 2.0 mg/kg/injection, schedule: Q04DX003 (ip), vehicle: saline with Tween-80) is 154 % of control and 161 % of control; the T/C (dose: 2.59 mg/kg/injection, schedule: Q04DX003 (ip), vehicle: water) was 160 % of control; the T/C (dose: 4.32 mg/kg/injection, schedule: Q04DX003 (ip), vehicle: saline) was 152 % of control and 153 % of control and 160 % of control; the T/C (dose: 4.32 mg/kg/injection, schedule: Q04DX003 (ip), vehicle: water) was 151 % of control and 169 % of control; the T/C (dose: 7.2 mg/kg/injection, schedule: Q04DX003 (ip), vehicle: saline) is 164 % of control and 180 % of control. Further, the T/C was 94 % of control and 98 % of control (dose: 8.0 mg/kg/injection, schedule: Q04DX003 (ip), vehicle: saline with Tween-80); 103 % of control (dose: 12.0 mg/kg/injection, schedule: Q04DX003 (ip), vehicle: saline); 92 % of control (dose: 12.0 mg/kg/injection, schedule: Q04DX003 (ip), vehicle: water).

`COc1ccc2ccc3ccc(OC)c(OC(C)=O)c3c2c1`: the T/C by setting is: under setting [11], 100 % of control; under setting [12], 98 % of control; under setting [13], 91 % of control.

On to `Nc1nc(-c2ccccc2)c(-c2ccccc2)n1C(=O)NCCCl`, for which the T/C is, setting by setting: (dose: 12.5 mg/kg/injection, schedule: Q04DX002 (ip), vehicle: saline with Tween-80) 114 % of control; (dose: 25.0 mg/kg/injection, schedule: Q04DX002 (ip), vehicle: saline with Tween-80) 113 % of control; under setting [15], 113 % of control.

`COC(=O)c1ccc(OC)c(OC)c1-c1c(C(=O)OC)c(C(=O)OC)c2n1CCc1cc3c(cc1-2)OCO3`: the T/C runs as follows: under setting [15], 103 % of control; (dose: 100.0 mg/kg/injection, schedule: Q04DX002 (ip), vehicle: saline with Tween-80) 100 % of control; (dose: 200.0 mg/kg/injection, schedule: Q04DX002 (ip), vehicle: saline with Tween-80) 90 % of control.

For `O=NN(C(=O)NC1CCC(O)CC1)C1CCC(O)CC1` (stereo unspecified), the T/C was 102 % of control (dose: 25.0 mg/kg/injection, schedule: Q01DX001 (ip), vehicle: distilled water + Tween-80); 99 % of control (dose: 50.0 mg/kg/injection, schedule: Q01DX001 (ip), vehicle: distilled water + Tween-80); 106 % of control (dose: 100.0 mg/kg/injection, schedule: Q01DX001 (ip), vehicle: distilled water + Tween-80); 101 % of control (dose: 200.0 mg/kg/injection, schedule: Q01DX001 (ip), vehicle: distilled water + Tween-80).

As for `CC(C)c1ccc(C(Cc2ccccc2)N(CCO)CCO)cc1` (stereo unspecified), the T/C is 105 % of control under setting [9]; 104 % of control under setting [10]; 99 % of control and 91 % of control under setting [4].

As for `COC(=O)c1cc2c3c(ccc2[nH]1)N(C(=O)c1cc2c4c(ccc2[nH]1)N(C(=O)c1cc2c5c(ccc2[nH]1)N(C(N)=O)CC5)CC4)CC3`, the T/C (dose: 12.5 mg/kg/injection, schedule: Q01DX005 (ip), vehicle: DMSO) was 110 % of control; the T/C (dose: 25.0 mg/kg/injection, schedule: Q01DX005 (ip), vehicle: DMSO) was 111 % of control; the T/C (dose: 50.0 mg/kg/injection, schedule: Q01DX005 (ip), vehicle: DMSO) was 105 % of control; the T/C (dose: 100.0 mg/kg/injection, schedule: Q01DX005 (ip), vehicle: DMSO) is 112 % of control.
